Data from PubChem BioAssay AID1963973 (Molecular Pharmacology Branch, DTP, NCI, 2024).
“And” between values parts separate entries of the source, which are not always exact repeats. Equal values may be shown once. Each block holds one compound with its values, some of them ahead of it.

Tested on: 883617-216-R-J1-PDC tumor spheroids, viability
Assay: Anticancer human tumor 883617-216-R-J1-PDC patient-derived bladder carcinoma cell line growth inhibition [PI3K]
Conditions: spheroids with HUVEC and MSC; for viability, T/C: stronger effect = lower value
In short: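 Targeted small molecules plus PI3K inhibitors, half-log dose series from Cmax (default top 10 microM), were applied to heterotypic spheroids of cancer cells with HUVEC and MSCs. Viability indicated growth inhibition.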

[1] = curve of first compound, second compound 0.00316 µM
[2] = curve of first compound, second compound 0.01 µM
[3] = curve of first compound, second compound 0.0316 µM
[4] = curve of first compound, second compound 0.1 µM
[5] = curve of first compound, second compound 0.316 µM
[6] = curve of first compound, second compound 1 µM
[7] = second compound 0.00316 µM, first compound 0.0316 µM
[8] = second compound 0.00316 µM, first compound 0.1 µM
[9] = second compound 0.00316 µM, first compound 0.316 µM
[10] = second compound 0.00316 µM, first compound 1 µM
[11] = second compound 0.01 µM, first compound 0.0316 µM
[12] = second compound 0.01 µM, first compound 0.1 µM
[13] = second compound 0.01 µM, first compound 0.316 µM
[14] = second compound 0.01 µM, first compound 1 µM
[15] = second compound 0.0316 µM, first compound 0.0316 µM
[16] = second compound 0.0316 µM, first compound 0.1 µM
[17] = second compound 0.0316 µM, first compound 0.316 µM
[18] = second compound 0.0316 µM, first compound 1 µM
[19] = second compound 0.1 µM, first compound 0.0316 µM
[20] = second compound 0.1 µM, first compound 0.1 µM
[21] = second compound 0.1 µM, first compound 0.316 µM
[22] = second compound 0.1 µM, first compound 1 µM
[23] = second compound 0.316 µM, first compound 0.0316 µM
[24] = second compound 0.316 µM, first compound 0.1 µM
[25] = second compound 0.316 µM, first compound 0.316 µM
[26] = second compound 0.316 µM, first compound 1 µM
[27] = second compound 1 µM, first compound 0.0316 µM
[28] = second compound 1 µM, first compound 0.1 µM
[29] = second compound 1 µM, first compound 0.316 µM
[30] = second compound 1 µM, first compound 1 µM
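Also: spheroids exposed to agents for 7 days before the viability read.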

Structure (SMILES): Cn1ncnc1[C@H]1c2n[nH]c(=O)c3cc(F)cc(c23)N[C@@H]1c1ccc(F)cc1
- viability, T/C (compound 0.000316 µM): 92.5% [middle of 4 runs]
- viability, T/C (compound 0.001 µM): 88.8% (2×) and 83.1% and 89.6%
- viability, T/C (compound 0.00316 µM): 91.6% [middle of 4 runs]
- viability, T/C (compound 0.01 µM): 84.4% [middle of 4 runs]
- viability, T/C (compound 0.0316 µM): 75.7% [middle of 4 runs]
- viability, T/C (compound 0.1 µM): 58.2% [middle of 4 runs]
- IC50 (curve of compound): > 100 nM

Structure (SMILES): C#Cc1c(F)ccc2cc(O)cc(-c3ncc4c(N5CC6CCC(C5)N6)nc(OCC56CCCN5CC(F)C6)nc4c3F)c12 (centres undefined) + COc1c(OCCCN2CCOCC2)ccc2c3n(c(=NC(=O)c4cnc(N)nc4)nc12)CCN3
- IC50 [1]: > 10000 nM
- IC50 [2]: 4880 nM
- IC50 [3]: < 31.6 nM
- IC50 [4]: < 31.6 nM
- IC50 [5]: < 31.6 nM
- IC50 [6]: < 31.6 nM
- viability, T/C [7]: 84.7%
- viability, T/C [8]: 99.8%
- viability, T/C [9]: 88.7%
- viability, T/C [10]: 91.3%
- viability, T/C (second compound 0.00316 µM, first compound 3.16 µM): 80%
- viability, T/C (second compound 0.00316 µM, first compound 10 µM): 52.1%
- viability, T/C [11]: 64.1%
- viability, T/C [12]: 64.8%
- viability, T/C [13]: 78.9%
- viability, T/C [14]: 67.4%
- viability, T/C (second compound 0.01 µM, first compound 3.16 µM): 55.5%
- viability, T/C (second compound 0.01 µM, first compound 10 µM): 41%
- viability, T/C [15]: 37%
- viability, T/C [16]: 45.5%
- viability, T/C [17]: 34.4%
- viability, T/C [18]: 34%
- viability, T/C (second compound 0.0316 µM, first compound 3.16 µM): 33.6%
- viability, T/C (second compound 0.0316 µM, first compound 10 µM): 22.8%
- viability, T/C [19]: 16.4%
- viability, T/C [20]: 17.1%
- viability, T/C [21]: 14.6%
- viability, T/C [22]: 15.6%
- viability, T/C (second compound 0.1 µM, first compound 3.16 µM): 12.2%
- viability, T/C (second compound 0.1 µM, first compound 10 µM): 11.4%
- viability, T/C [23]: 5.31%
- viability, T/C [24]: 5%
- viability, T/C [25]: 4.47%
- viability, T/C [26]: 4.9%
- viability, T/C (second compound 0.316 µM, first compound 3.16 µM): 3.89%
- viability, T/C (second compound 0.316 µM, first compound 10 µM): 2.71%
- viability, T/C [27]: 3.49%
- viability, T/C [28]: 3.22%
- viability, T/C [29]: 2.69%
- viability, T/C [30]: 2.82%
- viability, T/C (second compound 1 µM, first compound 3.16 µM): 2.98%
- viability, T/C (second compound 1 µM, first compound 10 µM): 0.66%

Structure (SMILES): CC(C)n1nc(-c2ccc3oc(N)nc3c2)c2c(N)ncnc21
- viability, T/C (compound 0.000316 µM): 95.2% [middle of 4 runs]
- viability, T/C (compound 0.001 µM): 90.4% [middle of 4 runs]
- viability, T/C (compound 0.00316 µM): 87.5% [middle of 4 runs]
- viability, T/C (compound 0.01 µM): 73% [middle of 4 runs]
- viability, T/C (compound 0.0316 µM): 47.2% [middle of 4 runs]
- viability, T/C (compound 0.1 µM): 20.2% [middle of 4 runs]
- IC50 (curve of compound): 27.6 nM [middle of 4 runs]

Continued, in another order:

- IC50 [1]: 234 nM
- IC50 [2]: 35.6 nM
- IC50 [3]: < 3.16 nM
- IC50 [4]: < 3.16 nM
- IC50 [5]: < 3.16 nM
- IC50 [6]: < 3.16 nM
Structure (SMILES): CCN1CCN(Cc2ccc(Nc3ncc(F)c(-c4cc(F)c5nc(C)n(C(C)C)c5c4)n3)nc2)CC1 + COc1c(OCCCN2CCOCC2)ccc2c3n(c(=NC(=O)c4cnc(N)nc4)nc12)CCN3
- viability, T/C (second compound 0.00316 µM, first compound 0.00316 µM): 91.3%
- viability, T/C (second compound 0.00316 µM, first compound 0.01 µM): 83.5%
- viability, T/C [7]: 70.2%
- viability, T/C [8]: 57.2%
- viability, T/C [9]: 47.6%
- viability, T/C [10]: 42.3%
- viability, T/C (second compound 0.01 µM, first compound 0.00316 µM): 65.5%
- viability, T/C (second compound 0.01 µM, first compound 0.01 µM): 62.2%
- viability, T/C [11]: 51.4%
- viability, T/C [12]: 40.4%
- viability, T/C [13]: 40.7%
- viability, T/C [14]: 38.8%
- viability, T/C (second compound 0.0316 µM, first compound 0.00316 µM): 36.3%
- viability, T/C (second compound 0.0316 µM, first compound 0.01 µM): 31.1%
- viability, T/C [15]: 24.8%
- viability, T/C [16]: 25.9%
- viability, T/C [17]: 24%
- viability, T/C [18]: 21.5%
- viability, T/C (second compound 0.1 µM, first compound 0.00316 µM): 14.6%
- viability, T/C (second compound 0.1 µM, first compound 0.01 µM): 12.9%
- viability, T/C [19]: 18.3%
- viability, T/C [20]: 11.5%
- viability, T/C [21]: 12.6%
- viability, T/C [22]: 11.8%
- viability, T/C (second compound 0.316 µM, first compound 0.00316 µM): 4.77%
- viability, T/C (second compound 0.316 µM, first compound 0.01 µM): 4.9%
- viability, T/C [23]: 4.63%
- viability, T/C [24]: 4.67%
- viability, T/C [25]: 4.91%
- viability, T/C [26]: 6.41%
- viability, T/C (second compound 1 µM, first compound 0.00316 µM): 2.94%
- viability, T/C (second compound 1 µM, first compound 0.01 µM): 3%
- viability, T/C [27]: 3.07%
- viability, T/C [28]: 3.49%
- viability, T/C [29]: 4.44%
- viability, T/C [30]: 6.38%

- IC50 (curve of compound): 571 nM [middle of 4 runs]
Structure (SMILES): Cn1ncc(Cl)c1-c1cc(C(=O)NC(CN)Cc2cccc(F)c2)sc1Cl (centres undefined)
- viability, T/C (compound 0.0316 µM): 98.2% [middle of 4 runs]
- viability, T/C (compound 0.1 µM): 85% [middle of 4 runs]
- viability, T/C (compound 0.316 µM): 63.8% [middle of 4 runs]
- viability, T/C (compound 1 µM): 34.5% [middle of 4 runs]
- viability, T/C (compound 3.16 µM): 13.8% [middle of 4 runs]
